Some test systems named below: EKVX; MDA-MB-435; SW-620; MDA-MB-231; K562; M14; 786-0; NCI-H226; RPMI-8226; MCF7; SK-OV-3; BT-549; SNB-19; SK-MEL-2; SF-268; U-251; HCT-15; A549; HL-60; SF-539.
Holding throughout (test): NCI tumour cell line growth inhibition, 48 h

The text below walks through data of ChEMBL document CHEMBL1201862, “PubChem BioAssay data set” (2004).

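In this assay, cells in 96-well plates receive the compound at five concentrations for 48 hours. Endpoints are linearly interpolated between the surrounding concentrations. At the GI50, growth is halved.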 Activity calls are given as the source filed them. Cut-off read from the data, not from the text of the source: active = GI50 up to about 1.1 µM and inactive = higher.

For `Cc1ccc(N2C=Nn3c(nc4sc5c(c4c3=O)CCCC5)C2)cc1`, the GI50 is 80 µM (inactive) in the test on EKVX; 99.3 µM (inactive) in the test on MDA-MB-435; 51.8 µM (inactive) in the test with SW-620; 43.6 µM (inactive) in the test with MDA-MB-231; 38.5 µM (inactive) in the test with K562; 65.5 µM (inactive) in the test on M14. In addition, the GI50 is 35.7 µM (inactive) in the test with 786-0; 55 µM (inactive) in the test with NCI-H226; 32.1 µM (inactive) in the test with RPMI-8226; 38.3 µM (inactive) in the test on MCF7; > 100 µM (inactive) in the test with SK-OV-3; > 100 µM (inactive) in the test with BT-549. Moreover, the GI50 was 78.2 µM (inactive) in the test with SNB-19; > 100 µM (inactive) in the test with SK-MEL-2; 83 µM (inactive) in the test on SF-268; 46.7 µM (inactive) in the test on U-251; 48.2 µM in the test on HCT-15; 47.4 µM (inactive) in the test on A549.
Take `Clc1sc(Cl)c2c1[C@@H](Cl)C[C@@H]2Br`: the GI50 in the test on EKVX was > 100 µM (inactive); in the test on MDA-MB-435, 40.6 µM (inactive); in the test on SW-620 it was 45.6 µM (inactive); in the test with MDA-MB-231, > 100 µM (inactive); in the test with K562, 34.2 µM (inactive); in the test with M14, > 100 µM (inactive). Further, the GI50 is > 100 µM (inactive) with 786-0; 43.8 µM (inactive) in the test with MCF7; > 100 µM (inactive) with SK-OV-3; > 100 µM (inactive) with BT-549; > 100 µM (inactive) with SNB-19; > 100 µM (inactive) in the test on SK-MEL-2. Also, the GI50 in the test on SF-268 is > 100 µM (inactive); in the test on U-251, > 100 µM (inactive); with HCT-15, 97.1 µM; in the test on A549, 83.8 µM (inactive).
`COc1ccc(-c2c(/C=N/OCC(=O)O)c3sc4ccccc4n3c2/C=N/OCC(=O)O)cc1`: the GI50 in the test with EKVX, in the test on MDA-MB-435, in the test on SW-620, with MDA-MB-231, in the test with K562 and in the test on M14 was > 50 µM (inactive) in each case. For the same molecule, the GI50 in the test with 786-0, in the test with MCF7, in the test with SK-OV-3, with BT-549, in the test on SNB-19 and in the test with SK-MEL-2 was > 50 µM (inactive) in each case. Besides, the GI50 with SF-268 is > 50 µM (inactive); with U-251, > 50 µM (inactive); in the test with HCT-15, more than 50 µM; with A549, > 50 µM (inactive).
Consider `O=C(CC(C(=O)c1cccs1)c1ccsc1)c1ccc(Cl)s1` (stereo not given), for which the GI50 is 75.2 µM (inactive) with HL-60; 50.7 µM (inactive) in the test with EKVX; 85.7 µM (inactive) with MDA-MB-435; > 100 µM (inactive) in the test on SW-620; > 100 µM (inactive) in the test on MDA-MB-231; > 100 µM (inactive) with K562. The GI50 in the test on M14 was 85.5 µM (inactive); in the test on 786-0, > 100 µM (inactive); with NCI-H226 it was > 100 µM (inactive); in the test on RPMI-8226, 55.1 µM (inactive); in the test on MCF7, 97.1 µM (inactive); with SK-OV-3, > 100 µM (inactive). Besides, the GI50 was 72.3 µM (inactive) with SNB-19; > 100 µM (inactive) in the test on SK-MEL-2; > 100 µM (inactive) in the test on SF-268; > 100 µM (inactive) with SF-539; > 100 µM (inactive) in the test with U-251; 73.3 µM in the test with HCT-15. In addition, the GI50 in the test with A549 was > 100 µM (inactive).
As to `Cc1ccc([N+](=O)[O-])cc1S(=O)(=O)Nc1ccc(C2=NN(S(=O)(=O)c3cc([N+](=O)[O-])ccc3C)C(c3ccco3)C2)cc1` (stereo not given), the GI50 with HL-60 was 38.8 µM (inactive); with EKVX it was 29.2 µM (inactive); with MDA-MB-435, 54.7 µM (inactive); with SW-620, > 100 µM (inactive); in the test on K562, 31 µM (inactive); with M14 it was 42 µM (inactive). For the same molecule, the GI50 with 786-0 is 48.8 µM (inactive); in the test on NCI-H226 it was 38.9 µM (inactive); in the test on RPMI-8226, 25.8 µM (inactive); with MCF7, 32.1 µM (inactive); in the test with SK-OV-3 it was > 100 µM (inactive); with BT-549, 25.8 µM (inactive). The GI50 in the test on SNB-19 is 46.1 µM (inactive); in the test with SK-MEL-2 it was 38 µM (inactive); in the test with SF-268 it was 53.3 µM (inactive); in the test with SF-539 it was 53 µM (inactive); with HCT-15, 41.7 µM.
With `CCOC(=O)[C@H]1C[C@]23CN(C(=O)OC(C)(C)C)CC[C@H]2CCC2(SCCCS2)[C@@H]3N1C`, the GI50 in the test on HL-60 is 20.7 µM (inactive); in the test with EKVX, 27.3 µM (inactive); with MDA-MB-435, 37.7 µM (inactive); with SW-620 it was 47.8 µM (inactive); with K562, 36.6 µM (inactive); with M14, 30.8 µM (inactive). Also, the GI50 is 34.5 µM (inactive) in the test on 786-0; 29.6 µM (inactive) with NCI-H226; 20.4 µM (inactive) with RPMI-8226; 38.7 µM (inactive) in the test on MCF7; > 100 µM (inactive) in the test with SK-OV-3; 50.2 µM (inactive) with BT-549. In addition, the GI50 with SNB-19 was 76 µM (inactive); with SK-MEL-2 it was 22.2 µM (inactive); in the test with SF-268, 50.4 µM (inactive); in the test on SF-539, 29.6 µM (inactive); in the test on U-251, 34.4 µM (inactive); with HCT-15, 38.1 µM. Moreover, the GI50 with A549 is 37.8 µM (inactive).
As for `O=C1Oc2ccccc2C(=O)/C1=C\Nc1nc(-c2ccccc2)cs1`, the GI50 in the test with HL-60 was 1.45 µM (inactive); in the test with EKVX, 19.5 µM (inactive); in the test with MDA-MB-435, 7.38 µM (inactive); with SW-620, 3.31 µM (inactive); in the test with MDA-MB-231, 18.9 µM (inactive); in the test on K562 it was 7.66 µM (inactive). In addition, the GI50 in the test with M14 is 4.53 µM (inactive); with 786-0, 5.83 µM (inactive); in the test with NCI-H226 it was 3.24 µM (inactive); in the test with RPMI-8226, 4.47 µM (inactive); in the test on MCF7 it was 4.07 µM (inactive); in the test with SK-OV-3 it was 33.4 µM (inactive). The GI50 is 19.9 µM (inactive) in the test with SNB-19; 14.3 µM (inactive) in the test with SK-MEL-2; 8.75 µM (inactive) with SF-268; 2.94 µM (inactive) in the test with SF-539; 11.8 µM (inactive) with U-251; 31 µM (inactive) with A549.
As to `CCCCCCCCCCCCCCCCCCOP1(=O)OCCO1`, the GI50 in the test with HL-60 is 23.8 µM (inactive); in the test with EKVX it was > 100 µM (inactive); in the test on MDA-MB-435, > 100 µM (inactive); in the test with SW-620 it was > 100 µM (inactive); in the test on MDA-MB-231 it was 44.5 µM (inactive); with K562, > 100 µM (inactive). In addition, the GI50 with M14 is > 100 µM (inactive); in the test with 786-0 it was > 100 µM (inactive); in the test on NCI-H226, > 100 µM (inactive); in the test on RPMI-8226 it was 37.4 µM (inactive); in the test with MCF7, > 100 µM (inactive); in the test with SK-OV-3 it was > 100 µM (inactive). Also, the GI50 was 44.8 µM (inactive) in the test on SNB-19; > 100 µM (inactive) in the test on SK-MEL-2; > 100 µM (inactive) in the test with SF-539; 27.9 µM (inactive) in the test on U-251; 39.9 µM in the test on HCT-15; 79.4 µM (inactive) with A549.
As for `CC12CC(c3ccccc3O1)C(C(=O)Nc1cccc(F)c1)C(=O)N2` (stereo not given), the GI50 in the test with HL-60 is 30.5 µM (inactive); in the test with EKVX, 31.6 µM (inactive); in the test on MDA-MB-435 it was 38.8 µM (inactive); in the test with SW-620 it was 84.9 µM (inactive); with K562, 35.4 µM (inactive); in the test with M14, 90.4 µM (inactive). The GI50 with 786-0 was > 100 µM (inactive); in the test on RPMI-8226 it was 40.7 µM (inactive); with MCF7 it was 44.7 µM (inactive); in the test on SK-OV-3 it was > 100 µM (inactive); with BT-549, 23.5 µM (inactive); in the test on SNB-19, > 100 µM (inactive). The GI50 in the test on SK-MEL-2 is > 100 µM (inactive); in the test with SF-268, > 100 µM (inactive); in the test on SF-539, > 100 µM (inactive); in the test with U-251 it was > 100 µM (inactive); with HCT-15 it was 42.9 µM; in the test with A549 it was 52.1 µM (inactive).
`C=CCN(c1cc(OC)c2c(c1[N+](=O)[O-])C(C)(SC)C(=O)N2)S(C)(=O)=O` (stereo not given): the GI50 in the test with MDA-MB-435 is > 100 µM (inactive); in the test with SW-620, > 100 µM (inactive); in the test with MDA-MB-231, > 100 µM (inactive); with K562, > 100 µM (inactive); with 786-0 it was 87.7 µM (inactive); in the test on NCI-H226 it was > 100 µM (inactive). The GI50 is 94 µM (inactive) in the test on RPMI-8226; > 100 µM (inactive) in the test with MCF7; > 100 µM (inactive) in the test on SK-OV-3; > 100 µM (inactive) in the test on BT-549; 96.6 µM (inactive) with SNB-19; > 100 µM (inactive) with SK-MEL-2. Also, the GI50 in the test on SF-268 was 83.6 µM (inactive); in the test with SF-539 it was > 100 µM (inactive); with U-251 it was > 100 µM (inactive); with HCT-15, more than 100 µM; in the test on A549, > 100 µM (inactive).
On to `CNC(=S)N/N=C(\C)c1ccc(OC)cc1O`, for which the GI50 in the test on HL-60 was 0.841 µM (active); in the test on EKVX, 82.6 µM (inactive); in the test with MDA-MB-435, > 100 µM (inactive); in the test with SW-620, > 100 µM (inactive); in the test on MDA-MB-231, > 100 µM (inactive); in the test with K562 it was 0.7 µM (active). The GI50 was > 100 µM (inactive) in the test on M14; > 100 µM (inactive) in the test on 786-0; 73.8 µM (inactive) in the test with NCI-H226; > 32 µM (inactive) in the test with RPMI-8226; > 100 µM (inactive) in the test with SK-OV-3; > 100 µM (inactive) in the test with BT-549. Besides, the GI50 in the test with SNB-19 is > 100 µM (inactive); with SK-MEL-2 it was > 100 µM (inactive); in the test with SF-268, > 100 µM (inactive); with SF-539, > 100 µM (inactive); with U-251 it was > 73.5 µM (inactive); with HCT-15, 16 µM. The GI50 in the test on A549 is > 100 µM (inactive).
